Target: T1, Msh2–Msh6 (Saccharomyces cerevisiae, UniProt P25847+Q03834)
T1 sequence (P25847 1-964): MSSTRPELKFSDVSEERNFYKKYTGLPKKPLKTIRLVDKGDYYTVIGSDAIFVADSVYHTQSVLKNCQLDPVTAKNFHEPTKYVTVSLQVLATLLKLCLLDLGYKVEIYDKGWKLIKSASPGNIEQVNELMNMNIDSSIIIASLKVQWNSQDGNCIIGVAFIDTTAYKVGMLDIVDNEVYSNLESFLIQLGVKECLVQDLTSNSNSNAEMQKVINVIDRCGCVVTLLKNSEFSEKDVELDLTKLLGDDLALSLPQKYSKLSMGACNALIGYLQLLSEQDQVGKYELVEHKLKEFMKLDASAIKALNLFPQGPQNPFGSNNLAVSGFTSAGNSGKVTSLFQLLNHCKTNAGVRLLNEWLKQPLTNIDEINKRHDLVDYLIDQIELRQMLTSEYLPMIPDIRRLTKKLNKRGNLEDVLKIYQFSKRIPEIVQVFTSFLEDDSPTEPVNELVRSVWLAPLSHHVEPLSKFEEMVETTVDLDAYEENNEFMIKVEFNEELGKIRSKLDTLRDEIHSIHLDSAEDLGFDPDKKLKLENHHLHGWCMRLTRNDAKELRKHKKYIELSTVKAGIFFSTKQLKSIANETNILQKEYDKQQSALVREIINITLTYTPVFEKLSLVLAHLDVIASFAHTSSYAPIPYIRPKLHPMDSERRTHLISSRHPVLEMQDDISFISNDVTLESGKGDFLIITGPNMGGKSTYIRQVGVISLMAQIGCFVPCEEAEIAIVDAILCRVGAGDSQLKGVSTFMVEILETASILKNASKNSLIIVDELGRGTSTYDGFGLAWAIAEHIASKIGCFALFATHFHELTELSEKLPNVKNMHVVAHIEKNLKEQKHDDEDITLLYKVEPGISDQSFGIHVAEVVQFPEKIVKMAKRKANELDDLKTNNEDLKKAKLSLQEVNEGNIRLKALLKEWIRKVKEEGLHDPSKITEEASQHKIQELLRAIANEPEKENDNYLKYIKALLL
T1 sequence (Q03834 1-1242): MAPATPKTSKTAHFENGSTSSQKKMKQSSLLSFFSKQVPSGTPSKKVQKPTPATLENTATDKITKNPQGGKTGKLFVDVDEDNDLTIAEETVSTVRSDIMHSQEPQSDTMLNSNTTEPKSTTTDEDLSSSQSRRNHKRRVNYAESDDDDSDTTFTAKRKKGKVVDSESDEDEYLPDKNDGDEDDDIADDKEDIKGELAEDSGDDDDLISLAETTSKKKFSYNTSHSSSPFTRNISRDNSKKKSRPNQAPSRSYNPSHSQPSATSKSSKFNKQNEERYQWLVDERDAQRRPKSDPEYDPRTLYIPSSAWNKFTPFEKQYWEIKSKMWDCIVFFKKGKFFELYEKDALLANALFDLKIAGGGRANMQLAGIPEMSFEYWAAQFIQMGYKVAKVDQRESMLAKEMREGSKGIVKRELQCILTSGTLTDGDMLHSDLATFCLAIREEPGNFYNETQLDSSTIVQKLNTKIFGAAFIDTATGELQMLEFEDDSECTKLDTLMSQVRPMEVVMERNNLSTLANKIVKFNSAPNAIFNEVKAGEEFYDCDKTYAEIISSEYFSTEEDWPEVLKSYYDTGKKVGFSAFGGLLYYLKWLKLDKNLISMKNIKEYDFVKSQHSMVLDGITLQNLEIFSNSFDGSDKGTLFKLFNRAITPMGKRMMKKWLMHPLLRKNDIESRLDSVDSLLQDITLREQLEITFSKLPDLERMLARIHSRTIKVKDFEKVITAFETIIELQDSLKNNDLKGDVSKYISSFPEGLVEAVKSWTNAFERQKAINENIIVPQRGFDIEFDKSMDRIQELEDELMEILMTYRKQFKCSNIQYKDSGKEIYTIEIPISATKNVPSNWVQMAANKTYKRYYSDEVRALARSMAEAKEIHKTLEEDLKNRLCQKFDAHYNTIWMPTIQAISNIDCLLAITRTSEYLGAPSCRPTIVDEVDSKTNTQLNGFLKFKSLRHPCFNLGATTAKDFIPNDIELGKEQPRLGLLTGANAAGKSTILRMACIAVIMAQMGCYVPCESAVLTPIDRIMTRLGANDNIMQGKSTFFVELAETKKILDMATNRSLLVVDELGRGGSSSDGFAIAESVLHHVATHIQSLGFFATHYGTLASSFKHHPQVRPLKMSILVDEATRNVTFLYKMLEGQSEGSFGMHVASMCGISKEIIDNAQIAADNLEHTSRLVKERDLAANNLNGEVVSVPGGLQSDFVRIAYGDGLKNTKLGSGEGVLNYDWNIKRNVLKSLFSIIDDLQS
Test: UV cross-linking of [γ-32P]ATP, SDS-PAGE, phosphorimaging
Type: binding
Details: labelled compound; reference complex; no Mg2+, EDTA, pH 8, on ice; Msh2 site at 60 μM ATP, Msh6 site at 1 μM ATP

Q: `Nc1ncnc2c1ncn2[C@@H]1O[C@H](COP(=O)(O)OP(=O)(O)OP(=O)(O)O)[C@@H](O)[C@H]1O` [ATP] was tested. Which “UV cross-linking of [γ-32P]ATP, SDS-PAGE, phosphorimaging” value did it give?
A: ATP binding at these concentrations was compared with WT Msh2–Msh6

Source: article PMC6254361, “The properties of Msh2–Msh6 ATP binding mutants suggest a signal amplification mechanism in DNA mismatch repair” (The Journal of Biological Chemistry, 2018)
